Data reported in US20160340334A1, “METHOD FOR ISOLATION OF ALKALOIDS AND AMINO ACIDS, AND CO[…] ALKALOIDS AND AMINO ACIDS” (priority 2015, published 2016).

What was measured:
[1] = system: migraine; settings: tryptophan administered in the form of 5-HTP; cited from earlier work
[2] = system: models of Parkinson's disease; settings: intermittent nicotine treatment; cited from earlier work
[3] = nicotine after extraction (Example 1); clinical studies

## N[C@@H](Cc1c[nH]c2ccc(O)cc12)C(=O)O [5-HTP, 5-Hydroxytryptophan]
[1]
  aborting or significantly mitigating pain after onset of a migraine: ineffective
  effect in migraine prevention: only moderate effects

## CN1CCCC1c1cccnc1 (stereo not shown) [nicotine]
[2]
  reduction of medication-induced dyskinesias: ≤ 50%
[3]
  side effects on use for treatment: without side effects such as tachyphylaxis
